Test results published in patent US20030229451A1, “Methods and systems for analyzing complex biological systems” (priority 2001, published 2003).

Tested on: Saccharomyces cerevisiae wild type strain BY4743
Experiment: AF1 metabolite analysis (GC-MS, LC-MS) of yeast cells treated with antifungal drugs
Format: cell-based
Settings: for # Compounds perturbed: 2x MIC, two hours

For `OC(Cn1cncn1)(Cn1cncn1)c1ccc(F)cc1F` [Fluconazole], the “# Compounds perturbed” value (P < 0.05) was 2, the “# Compounds perturbed” value (P < 0.1) was 6 and the “Fold Change, alanine” value (platform GC) was 0.3084. The “Fold Change, asparagine” value (platform GC) was 0.3999, the “Fold Change, aspartic acid” value (platform GC) was 0.4337 and the “Fold Change, campesterol” value (platform GC) was 0. The “Fold Change, desmosterol” value (platform GC) was 0, the “Fold Change, disaccaride1” value (platform GC) was 0.3883 and the “Fold Change, disaccaride2” value (platform GC) was 0.1517. The “Fold Change, disaccaride3” value (platform GC) was 0.5803, the “Fold Change, ergosterol” value (platform GC) was 0.948 and the “Fold Change, fucosterol” value (platform GC) was 6.665. The “Fold Change, glutamine” value (platform GC) was 0.5242, the “Fold Change, glycanopyrose” value (platform GC) was 1.202 and the “Fold Change, glycerol” value (platform GC) was 0.2187. The “Fold Change, glycine” value (platform GC) was −0.1037, the “Fold Change, hexadecanoic acid” value (platform GC) was 0.1343 and the “Fold Change, iso citric acid” value (platform GC) was 0.3923. The “Fold Change, isoleucine” value (platform GC) was 0.391, the “Fold Change, lanosterol” value (platform GC) was 8.462 and the “Fold Change, leucine” value (platform GC) was 0.3387. For the same molecule, the “Fold Change, lysine” value (platform GC) was 0.3412, the “Fold Change, malic acid” value (platform GC) was 0.3975 and the “Fold Change, mevalonic acid lactone” value (platform GC) was 0.2333. The “Fold Change, octadecanoic acid” value (platform GC) was 0.082, the “Fold Change, oleic acid” value (platform GC) was −0.3073 and the “Fold Change, ornithine2” value (platform GC) was 0.4473. The “Fold Change, ornithine3” value (platform GC) was 0.2647, the “Fold Change, palmiteliadic acid” value (platform GC) was −0.08867 and the “Fold Change, phenylalanine” value (platform GC) was 0.2774. The “Fold Change, phosphate” value (platform GC) was −0.508, the “Fold Change, pyrimidine” value (platform GC) was 0.2457 and the “Fold Change, 2-ketobutyric acid” value (platform nLC) was −0.9992. The “Fold Change, 2-ketoglutaric” value (platform nLC) was −0.9995, the “Fold Change, 3-indolylacetonitri” value (platform nLC) was −0.9998 and the “Fold Change, 4-methylcatechol” value (platform nLC) was 0. For the same molecule, the “Fold Change, 4aminobutyrate/dimg” value (platform nLC) was 0.1384, the “Fold Change, 5hydroxyLtryptophan” value (platform nLC) was 0 and the “Fold Change, 6-benzylaminopurine” value (platform nLC) was 0. The “Fold Change, DLaminoadipic acid” value (platform nLC) was 0.443, the “Fold Change, NacetylDglucosamine” value (platform nLC) was 0 and the “Fold Change, NacetylLglutamate” value (platform nLC) was 0.1369. The “Fold Change, NacetylLornithine” value (platform nLC) was 0, the “Fold Change, abscisic acid” value (platform nLC) was 0 and the “Fold Change, aconitic acid” value (platform nLC) was 0.6483. For the same molecule, the “Fold Change, adenine” value (platform nLC) was 0, the “Fold Change, adenosine” value (platform nLC) was 0 and the “Fold Change, alanine” value (platform nLC) was 0.399. For the same molecule, the “Fold Change, allantoic acid” value (platform nLC) was 0.2392, the “Fold Change, allantoin” value (platform nLC) was 0.3942 and the “Fold Change, anthranilic acid” value (platform nLC) was 0. For the same molecule, the “Fold Change, arginine” value (platform nLC) was 0.6484, the “Fold Change, argininosuccinate” value (platform nLC) was 0 and the “Fold Change, asparagine” value (platform nLC) was 0.3545. The “Fold Change, aspartic” value (platform nLC) was 0.4993, the “Fold Change, benzoic acid” value (platform nLC) was 0 and the “Fold Change, biotin” value (platform nLC) was 0.3455. The “Fold Change, caffeic acid” value (platform nLC) was −0.4711, the “Fold Change, catechol” value (platform nLC) was 0 and the “Fold Change, cinnamic acid” value (platform nLC) was 0. The “Fold Change, citricanoic/itaconi.” value (platform nLC) was 0, the “Fold Change, citrulline” value (platform nLC) was 0 and the “Fold Change, coumaric acid” value (platform nLC) was 0. For the same molecule, the “Fold Change, cytidine” value (platform nLC) was −0.7969, the “Fold Change, cytosine” value (platform nLC) was 0 and the “Fold Change, decanoic acid” value (platform nLC) was 0.1846. The “Fold Change, diaminopimelic acid” value (platform nLC) was 0, the “Fold Change, dihydrofolic acid” value (platform nLC) was 0 and the “Fold Change, estrone” value (platform nLC) was 0. The “Fold Change, farnesol” value (platform nLC) was 0, the “Fold Change, folic acid” value (platform nLC) was 0 and the “Fold Change, fumaric/3m2oxobutan” value (platform nLC) was 0.6009. For the same molecule, the “Fold Change, gallic acid” value (platform nLC) was 0.5071, the “Fold Change, gibberellic” value (platform nLC) was 0 and the “Fold Change, glucosamine6PO4” value (platform nLC) was −0.9951. For the same molecule, the “Fold Change, glutamic/acetylseri” value (platform nLC) was 0.3842, the “Fold Change, glutamine/lysine” value (platform nLC) was 0.3309 and the “Fold Change, guanine” value (platform nLC) was 0. The “Fold Change, guanosine” value (platform nLC) was −0.993, the “Fold Change, histidine” value (platform nLC) was 0 and the “Fold Change, homogentisic/uric” value (platform nLC) was 0. The “Fold Change, hydrocortisone” value (platform nLC) was 0, the “Fold Change, hypoxanthine” value (platform nLC) was 0.7757 and the “Fold Change, indole3pyruvic acid” value (platform nLC) was 0. The “Fold Change, inostol/glucos/sorb” value (platform nLC) was −0.4744, the “Fold Change, isocitric/citric/qu” value (platform nLC) was 1.457 and the “Fold Change, jasmonic acid” value (platform nLC) was 0. For the same molecule, the “Fold Change, kinetin” value (platform nLC) was 0, the “Fold Change, lactic acid” value (platform nLC) was −0.0439 and the “Fold Change, lauric acid” value (platform nLC) was 0.3906. The “Fold Change, leucine/isoleucine/” value (platform nLC) was 0.3306, the “Fold Change, luteolin” value (platform nLC) was 0 and the “Fold Change, malic acid” value (platform nLC) was 0.4366. For the same molecule, the “Fold Change, malonic acid” value (platform nLC) was 0, the “Fold Change, menthol*” value (platform nLC) was 0.04758 and the “Fold Change, methionine” value (platform nLC) was 0. The “Fold Change, nicotinic acid” value (platform nLC) was 2.443, the “Fold Change, nopaline” value (platform nLC) was 0.3432 and the “Fold Change, oleic acid” value (platform nLC) was −0.01684. The “Fold Change, ornithine” value (platform nLC) was 0.3508, the “Fold Change, orotic acid” value (platform nLC) was 0 and the “Fold Change, palmitic acid” value (platform nLC) was −0.0233. For the same molecule, the “Fold Change, phenylalanine” value (platform nLC) was 0.1527, the “Fold Change, phenylpyruvic acid” value (platform nLC) was 0 and the “Fold Change, phosphoenolpyruvate” value (platform nLC) was 0. The “Fold Change, pinitol” value (platform nLC) was 0, the “Fold Change, pipecolic acid” value (platform nLC) was 0.2901 and the “Fold Change, porphobilinogen” value (platform nLC) was 0. The “Fold Change, proline” value (platform nLC) was 0.4164, the “Fold Change, pyridoxine” value (platform nLC) was −0.04201 and the “Fold Change, 4-aminobenzoic acid” value (platform pLC) was 0. The “Fold Change, 4-methylcatechol” value (platform pLC) was 0, the “Fold Change, 4ambutyrate/dimglyc” value (platform pLC) was −0.4383 and the “Fold Change, 5hydroxyLtryptophan” value (platform pLC) was 0. For the same molecule, the “Fold Change, 6benzylaminopurine” value (platform pLC) was 0, the “Fold Change, DL-aminoadipic acid” value (platform pLC) was 0.1155 and the “Fold Change, NacetylDglucosamine” value (platform pLC) was 0. The “Fold Change, NacetylLglutamate” value (platform pLC) was 0, the “Fold Change, NacetylLornithine” value (platform pLC) was 0.1584 and the “Fold Change, abscisic acid” value (platform pLC) was 0. For the same molecule, the “Fold Change, adenine” value (platform pLC) was −0.09439, the “Fold Change, adenosine” value (platform pLC) was 0 and the “Fold Change, alanine/sarcosine” value (platform pLC) was 0.1269. For the same molecule, the “Fold Change, allantoic acid” value (platform pLC) was 0, the “Fold Change, anthranilic acid” value (platform pLC) was 0 and the “Fold Change, arginine” value (platform pLC) was 0.1179. The “Fold Change, argininosuccinate” value (platform pLC) was 0, the “Fold Change, asparagine” value (platform pLC) was 0.3192 and the “Fold Change, aspartic acid” value (platform pLC) was 0.214. For the same molecule, the “Fold Change, biotin” value (platform pLC) was 0, the “Fold Change, caffeine” value (platform pLC) was 0 and the “Fold Change, citric acid TME” value (platform pLC) was 0. The “Fold Change, citrulline” value (platform pLC) was 0.08252, the “Fold Change, cytidine” value (platform pLC) was 0 and the “Fold Change, cytosine” value (platform pLC) was 0. For the same molecule, the “Fold Change, diaminopimelic acid” value (platform pLC) was 0, the “Fold Change, dihydrofolic acid” value (platform pLC) was 0 and the “Fold Change, dipicolinic acid” value (platform pLC) was 0. For the same molecule, the “Fold Change, folic acid” value (platform pLC) was 0, the “Fold Change, glucosamine” value (platform pLC) was 0 and the “Fold Change, glucosamine6PO4” value (platform pLC) was 0. For the same molecule, the “Fold Change, glutamate” value (platform pLC) was −0.06179, the “Fold Change, glutamine/lysine” value (platform pLC) was 0.2242 and the “Fold Change, glutathione” value (platform pLC) was −0.05832. For the same molecule, the “Fold Change, guanosine” value (platform pLC) was −0.9981, the “Fold Change, histidine” value (platform pLC) was 0 and the “Fold Change, hydrocortisone” value (platform pLC) was 0. The “Fold Change, hypoxanthine” value (platform pLC) was 0.1298, the “Fold Change, itaconic acid dimes” value (platform pLC) was 0 and the “Fold Change, kinetin” value (platform pLC) was 0. The “Fold Change, leucine/isoleucine/” value (platform pLC) was 0.1638, the “Fold Change, luteolin” value (platform pLC) was 0 and the “Fold Change, mannitol” value (platform pLC) was 0.152. For the same molecule, the “Fold Change, methionine” value (platform pLC) was −0.2906, the “Fold Change, mevalonic lactone” value (platform pLC) was −0.5175 and the “Fold Change, niacinamide” value (platform pLC) was 0. The “Fold Change, nicotinic acid” value (platform pLC) was −0.7982, the “Fold Change, nopaline” value (platform pLC) was 0 and the “Fold Change, ornithine” value (platform pLC) was 0.4775. For the same molecule, the “Fold Change, phenylalanine” value (platform pLC) was −0.1809, the “Fold Change, phosphoenolpyruvate” value (platform pLC) was 0 and the “Fold Change, pipecolic acid” value (platform pLC) was 0.2583. For the same molecule, the “Fold Change, progesterone” value (platform pLC) was 0, the “Fold Change, proline” value (platform pLC) was 0.2075 and the “Fold Change, pyridoxine” value (platform pLC) was −0.3831.
